# Results from PMC6193035, “Novel small molecules affecting cell membrane as potential therapeutics for avian pathogenic Escherichia coli” (Scientific Reports, 2018).
# Marks after values point to notes of the source that are not given here.
# Key:
# APEC O78-53 = assay: MIC and MBC determination in M63 media; assay type: cell-based; settings: Escherichia coli; APEC O78-53, M63 media
# How it was run: (§1)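 Broth microdilution, M63, inoculum OD600 0.05; 1 µL compound into 100 µL culture. Read: OD600 on plate reader.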
# APEC O35 = assay: MIC and MBC determination in M63 media; assay type: cell-based; settings: Escherichia coli
# [1] = tested on: intracellular APEC O78, O2, and O1 in infected Caco-2, HD11, and THP1 cells; assay: Intracellular survival assay, statements over all serotypes and cells; assay type: cell-based, Escherichia coli
# How it was run: (§2)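 Two independent duplicate experiments per compound concentration assessed APEC intracellular survival following MOI 10 infection of HD11, THP-1 (1 h) or Caco-2 (3 h) cells, quantified as viable CFU on LB agar with 1% DMSO as reference.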
# [2] = tested on: intracellular APEC O1 in HD11 cells; assay: Intracellular survival assay; assay type: cell-based, Escherichia coli
# How it was run: as §2
# [3] = tested on: intracellular APEC O1 in THP-1 cells; assay: Intracellular survival assay; assay type: cell-based, Escherichia coli
# How it was run: as §2
# [4] = tested on: intracellular APEC O2 in THP-1 cells; assay: Intracellular survival assay; assay type: cell-based, Escherichia coli
# How it was run: as §2
# [5] = tested on: intracellular APEC O2 in HD11 cells; assay: Intracellular survival assay; assay type: cell-based, Escherichia coli
# How it was run: as §2
# [6] = tested on: intracellular APEC O1 in Caco-2 cells; assay: Intracellular survival assay; assay type: cell-based, Escherichia coli
# How it was run: as §2
# [7] = tested on: intracellular APEC O78 in Caco-2 cells; assay: Intracellular survival assay; assay type: cell-based, Escherichia coli
# How it was run: as §2
# [8] = tested on: intracellular APEC O78 in THP-1 cells; assay: Intracellular survival assay; assay type: cell-based, Escherichia coli
# How it was run: as §2
# [9] = tested on: intracellular APEC O78 in HD11 cells; assay: Intracellular survival assay; assay type: cell-based, Escherichia coli
# How it was run: as §2
# [10] = tested on: intracellular APEC O2 in Caco-2 cells; assay: Intracellular survival assay; assay type: cell-based, Escherichia coli
# How it was run: as §2
# APEC O78 [11] = assay: Loss of 260/280 nm absorbing materials assay; assay type: cell-based, Escherichia coli; settings: 2X MBC, 1 h
# Procedure: (§3) Membrane permeability assays (crystal violet (CV) uptake and loss of 260/280 nm absorbing materials) were conducted as described previously. […] CV uptake was measured using the formula: (OD DMSO − OD SM/OD DMSO × 100). Two independent experiments in duplicates were conducted.
# APEC O78 [12] = assay: MIC and MBC determination in M63 media; assay type: cell-based, Escherichia coli; settings: Escherichia coli
# How it was run: as §1
# APEC O78 [13] = assay: Crystal violet (CV) uptake assay; assay type: cell-based, Escherichia coli; settings: 2X MBC, 30 mins; P < 0.05, Student's t-test
# Procedure: as §3
# APEC O109 = assay: MIC and MBC determination in M63 media; assay type: cell-based; settings: Escherichia coli
structure (smiles),measurement,setting,value
CCN1/C(=C/c2ccc3ccccc3[n+]2CC)C=Cc2ccccc21 [SM9],MBC,APEC O78-53,25 µM
same,MIC,APEC O78-53,25 µM
same,MBC,APEC O35,50 µM
same,MIC,APEC O35,25 µM
same,minimal effective concentration,"[1]; Escherichia coli, 6 h, O78, O2 and O1, Caco-2, HD11, THP-1, 6 h, read-out: concentration clearing intracellular APEC",≤ 100 µM
same,ranking in clearing intracellular APEC,[1]; all tested serotypes and cells,most effective SMs in clearing intracellular APEC serotypes in all tested cells
same,minimal effective concentration,"[2]; Escherichia coli, O1, HD11, 6 h treatment, read-out: SMs intracellular APEC clearance concentration",100 µM
same,concentration at which the SM significantly (P < 0.01) reduced intracellular APEC (superscript of t-statistic),"[2]; O1, HD11, 6 h",b (1X MIC)
same,minimal effective concentration,"[3]; Escherichia coli, O1, THP-1, 6 h treatment, read-out: SMs intracellular APEC clearance concentration",50 µM
same,intracellular APEC clearance concentration as multiple of MIC (superscript),"[3]; O1, THP-1",b (2X MIC)
same,concentration at which the SM significantly (P < 0.01) reduced intracellular APEC (superscript of t-statistic),"[3]; O1, THP-1, 6 h",b (1X MIC)
same,minimal effective concentration,"[4]; Escherichia coli, O2, THP-1, 6 h treatment, read-out: SMs intracellular APEC clearance concentration",50 µM
same,concentration at which the SM significantly (P < 0.01) reduced intracellular APEC (superscript of t-statistic),"[4]; O2, THP-1, 6 h",b (1X MIC)
same,minimal effective concentration,"[5]; Escherichia coli, O2, HD11, 6 h treatment, read-out: SMs intracellular APEC clearance concentration",100 µM
same,intracellular APEC clearance concentration as multiple of MIC (superscript),"[5]; O2, HD11",c (4X MIC)
same,concentration at which the SM significantly (P < 0.01) reduced intracellular APEC (superscript of t-statistic),"[5]; O2, HD11, 6 h",c (2XMIC)
same,minimal effective concentration,"[6]; Escherichia coli, O1, Caco-2, 6 h treatment, read-out: SMs intracellular APEC clearance concentration",100 µM
same,intracellular APEC clearance concentration as multiple of MIC (superscript),"[6]; O1, Caco-2",c (4X MIC)
same,concentration at which the SM significantly (P < 0.01) reduced intracellular APEC (superscript of t-statistic),"[6]; O1, Caco-2, 6 h",c (2XMIC)
same,minimal effective concentration,"[7]; Escherichia coli, O78, Caco-2, 6 h treatment, read-out: SMs intracellular APEC clearance concentration",50 µM
same,intracellular APEC clearance concentration as multiple of MIC (superscript),"[7]; O78, Caco-2",b (2X MIC)
same,concentration at which the SM significantly (P < 0.01) reduced intracellular APEC (superscript of t-statistic),"[7]; O78, Caco-2, 6 h",b (1X MIC)
same,minimal effective concentration,"[8]; Escherichia coli, O78, THP-1, 6 h treatment, read-out: SMs intracellular APEC clearance concentration",50 µM
same,intracellular APEC clearance concentration as multiple of MIC (superscript),"[8]; O78, THP-1",b (2X MIC)
same,concentration at which the SM significantly (P < 0.01) reduced intracellular APEC (superscript of t-statistic),"[8]; O78, THP-1, 6 h",b (1X MIC)
same,minimal effective concentration,"[9]; Escherichia coli, O78, HD11, 6 h treatment, read-out: SMs intracellular APEC clearance concentration",100 µM
same,intracellular APEC clearance concentration as multiple of MIC (superscript),"[9]; O78, HD11",c (4X MIC)
same,concentration at which the SM significantly (P < 0.01) reduced intracellular APEC (superscript of t-statistic),"[9]; O78, HD11, 6 h",c (2XMIC)
same,minimal effective concentration,"[10]; Escherichia coli, O2, Caco-2, 6 h treatment, read-out: SMs intracellular APEC clearance concentration",100 µM
same,intracellular APEC clearance concentration as multiple of MIC (superscript),"[10]; O2, Caco-2",c (4X MIC)
same,concentration at which the SM significantly (P < 0.01) reduced intracellular APEC (superscript of t-statistic),"[10]; O2, Caco-2, 6 h",c (2XMIC)
same,260 nm absorbing materials in supernatant compared with DMSO,APEC O78 [11],"significantly (P < 0.05, Student’s t-test) increased"
same,280 nm absorbing materials in supernatant compared with DMSO,APEC O78 [11],"significantly (P < 0.05, Student’s t-test) increased"
same,Absorbance 280 nm of treated supernatant,"APEC O78 [11]; DMSO 2.58, superscript a P < 0.05 vs DMSO",2.78^a
same,Absorbance 260 nm of treated supernatant,"APEC O78 [11]; DMSO 3.77, superscript a P < 0.05 vs DMSO",3.99^a
same,MIC,APEC O78 [12],25 µM
same,MBC,APEC O78 [12]; subculture on LB agar,50 µM
same,uptake of crystal violet compared with DMSO,APEC O78 [13],increased the uptake of crystal violet
same,MBC,APEC O109,50 µM
same,MIC,APEC O109,25 µM
